Results from US20220265618A1, “METHODS OF TREATING PROSTATE CANCER” (Celgene Quanticel Research, Inc., priority 2021, published 2022).

Legend:
[1] = system: VCaP cells; experiment: Proliferation assay (Cell Titer-Glo), VCaP cells; format: cell-based, human
Procedure: (§1) Proliferation was measured both at Day 0 and at Day 3, and percent of growth was determined using Luciferase assay.
(§2) Proliferation was measured both at Day 0 and at Day 6, and percent of growth was determined using Luciferase assay.
Cell culture: VCaP, LNCaP, 22Rv1, DU145 and PC3 cancer cell lines were obtained from ATCC. VCaP cells were cultured in DMEM media supplemented with 8% FBS, LNCaP cells were cultured in RPMI1640 media supplemented with 10% FBS, and PC3 cells were cultured in F12 K media supplemented with 10% FBS. LNCaP_AR CRISPRi gCTR, LNCaP_AR CRISPRi gTP53/RB1, and LNCaP_AR shTP53/RB1 cells were obtained from Charles L. Sawyers lab and were cultured in RPMI1640 supplemented with 10% FBS+2 mM L-Glutamine+1 mM Sodium Pyruvate+10 mM Hepes. DKO and TKO cells were obtained from David W. Goodrich lab and were cultured in DMEM media supplemented with 2.5% charcoal-stripped FBS+5 μg/mL of insulin/transferring/selenium (ITS)+10 μg/mL of bovine pituitary extract (BPE)+10 μg/mL of epidermal growth factor+1 μg/mL of cholera toxin. […]
Proliferation Assay: Cells were plated in a 384-well format and were allowed to adhere 24h before treatment. […] Cell proliferation was measured on the day of treatment (Day 0) and on Day 3 or Day 6 or Day 14 using Cell Titer-Glo reagent (Promega) according to the manufacturer's instructions. […]

[2] = system: KLK3 gene expression in VCaP cells; experiment: qPCR gene expression in VCaP cells: KLK3; format: cell-based, human; conditions: 400 nM, 48 h
Procedure: (§3) KLK3, TMPRSS2,MYC and HEXIM1 genes expression was determined by qPCR.

[3] = system: TMPRSS2 gene expression in VCaP cells; experiment: qPCR gene expression in VCaP cells: TMPRSS2; format: cell-based, human; conditions: 400 nM, 48 h
Procedure: as §3

[4] = system: MYC gene expression in VCaP cells; experiment: qPCR gene expression in VCaP cells: MYC; format: cell-based, human; conditions: 48 h
Procedure: as §3

[5] = system: HEXIM1 gene expression in VCaP cells; experiment: qPCR gene expression in VCaP cells: HEXIM1; format: cell-based, human; conditions: 48 h
Procedure: as §3

[6] = system: LNCaP cells; experiment: Proliferation assay (Cell Titer-Glo), LNCaP cells; format: cell-based, human
Procedure: as §1, §2
(§4) Cell culture: VCaP, LNCaP, 22Rv1, DU145 and PC3 cancer cell lines were obtained from ATCC. VCaP cells were cultured in DMEM media supplemented with 8% FBS, LNCaP cells were cultured in RPMI1640 media supplemented with 10% FBS, and PC3 cells were cultured in F12 K media supplemented with 10% FBS. LNCaP_AR CRISPRi gCTR, LNCaP_AR CRISPRi gTP53/RB1, and LNCaP_AR shTP53/RB1 cells were obtained from Charles L. Sawyers lab and were cultured in RPMI1640 supplemented with 10% FBS+2 mM L-Glutamine+1 mM Sodium Pyruvate+10 mM Hepes. DKO and TKO cells were obtained from David W. Goodrich lab and were cultured in DMEM media supplemented with 2.5% charcoal-stripped FBS+5 μg/mL of insulin/transferring/selenium (ITS)+10 μg/mL of bovine pituitary extract (BPE)+10 μg/mL of epidermal growth factor+1 μg/mL of cholera toxin. DKO cells have been derived from intact mice so were cultured also in presence of 1nM R1881.
(§5) Proliferation Assay: Cells were plated in a 384-well format and were allowed to adhere 24h before treatment. Drugs were titrated 1:3 from 10 μM to […] with 9 doses in triplicate. Cell proliferation was measured on the day of treatment (Day 0) and on Day 3 or Day 6 or Day 14 using Cell Titer-Glo reagent (Promega) according to the manufacturer's instructions. Cell growth normalized to the DMSO vehicle control and to Day 0 was fitted by nonlinear regression using GraphPad Prism 7.03 (GraphPad Software, Inc.).

[7] = system: LNCaP cells overexpressing AR (LNCaP_AR); experiment: Proliferation assay (Cell Titer-Glo), LNCaP_AR cells; format: cell-based, human
Procedure: as §1, §2
(§6) Proliferation was measured both at Day 0 and at Day 14, and percent of growth was determined using Luciferase assay.
as §4, §5

[8] = system: 22Rv1 cells; experiment: Proliferation assay (Cell Titer-Glo), 22Rv1 cells; format: cell-based; conditions: Homo sapiens, 22Rv1, 72 h; 3 days (FIG. 6); read-out: IC50, proliferation of 22RV.1 cells
Procedure: as §1, §4
(§7) Proliferation Assay: Cells were plated in a 384-well format and were allowed to adhere 24h before treatment. Drugs were titrated 1:3 from 10 μM to 0.1 nM with 9 doses in triplicate. Cell proliferation was measured on the day of treatment (Day 0) and on Day 3 or Day 6 or Day 14 using Cell Titer-Glo reagent (Promega) according to the manufacturer's instructions. […]

[9] = system: KLK3 gene expression in 22Rv1 cells; experiment: qPCR gene expression in 22Rv1 cells: KLK3; format: cell-based, human; conditions: 22RV.1 cells, 48 hours
Procedure: as §3

[10] = system: TMPRSS2 gene expression in 22Rv1 cells; experiment: qPCR gene expression in 22Rv1 cells: TMPRSS2; format: cell-based, human; conditions: 22RV.1 cells, 48 hours
Procedure: as §3

[11] = system: MYC gene expression in 22Rv1 cells; experiment: qPCR gene expression in 22Rv1 cells: MYC; format: cell-based, human; conditions: 22RV.1 cells, 48 hours
Procedure: as §3

[12] = system: HEXIM1 gene expression in 22Rv1 cells; experiment: qPCR gene expression in 22Rv1 cells: HEXIM1; format: cell-based, human; conditions: 22RV.1 cells, 400 nM, 48 hours
Procedure: as §3

[13] = system: LNCaP_AR CRISPRi guide TP53/RB1 cells; experiment: Proliferation assay (Cell Titer-Glo), LNCaP_AR CRISPRi TP53/RB1 cells; format: cell-based, human
Procedure: as §6, §4, §5

[14] = system: LNCaP_AR shTP53/RB1 cells; experiment: Proliferation assay (Cell Titer-Glo), LNCaP_AR shTP53/RB1 cells; format: cell-based, human
Procedure: as §6, §4, §5

[15] = system: TKO cells (deleted for Pten, Rb1, and Trp53); experiment: Proliferation assay (Cell Titer-Glo), TKO cells; format: cell-based, mouse
Procedure: as §2, §4, §7

[16] = system: DKO cells (deleted for Pten and Rb1); experiment: Proliferation assay (Cell Titer-Glo), DKO cells; format: cell-based, mouse
Procedure: as §6, §4, §7

[17] = system: DU145 cells; experiment: Proliferation assay (Cell Titer-Glo), DU145 cells; format: cell-based, human; conditions: 3 days (FIG. 10)
Procedure: as §1, §4, §7

[18] = system: PC3 cells; experiment: Proliferation assay (Cell Titer-Glo), PC3 cells; format: cell-based, human; conditions: 3 days (FIG. 11)
Procedure: as §1, §4, §7

[19] = system: Neuroendocrine prostate cancer models; experiment: Proliferation assay, all Neuroendocrine prostate cancer models tested (summary); format: cell-based; conditions: summary over all NEPC models
Procedure: as §4, §7

Compound: Cn1cc(-c2cc(S(C)(=O)=O)ccc2OCC2CC2)c2ccccc2c1=O [Compound A, 4-[2-(cyclopropylmethoxy)-5-methylsulfonylphenyl]-2-methylisoquinolin-1-one]
- growth arrest of VCaP cell proliferation ([1]; at 0.3 μM Compound A, 3 and 6 days (FIGS. 1A-1B)): 100%
- cytotoxic effects in VCaP cells ([1]; at the highest concentration (FIGS. 1A-1B)): cytotoxic effects
- KLK3 downregulation as compared to DMSO [2]: 80.2%
- TMPRSS2 downregulation as compared to DMSO [3]: 26.3%
- reduction in MYC expression ([4]; 40 nM): 18.9%
- MYC downregulation ([4]; 400 nM): 81.1%
- HEXIM1 upregulation as compared to DMSO ([5]; 40 nM): 121.1%
- HEXIM1 upregulation as compared to DMSO ([5]; 400 nM): 754%
- IC50 ([6]; Homo sapiens, LNCaP, 144 h, prolonged treatment (6 days) (FIG. 3B), read-out: half maximal inhibitory concentration (IC50), LNCaP cells): 490 nM
- growth arrest of LNCaP cells ([6]; after 3 days of treatment (FIG. 3A)): 100%
- cell death in LNCaP cells ([6]; prolonged treatment (6 days)): induced cell death
- growth arrest of LNCaP_AR cells ([7]; 3 days (FIG. 4A)): complete growth arrest
- cytotoxicity in LNCaP_AR cells ([7]; highest dose, longer treatment (6 days, FIG. 4B)): cytotoxicity
- concentration causing cell death in LNCaP_AR cells on re-treatment ([7]; treated Day 0 and Day 6, total 14 days (FIG. 5)): > 1 µM
- IC50 [8]: 200 nM
- KLK3 downregulation ([9]; 40 nM): 98.8%
- KLK3 downregulation ([9]; 400 nM): 99.51%
- TMPRSS2 reduction ([10]; 40 nM): 93.2%
- TMPRSS2 reduction ([10]; 400 nM): 95.3%
- MYC downregulation ([11]; 40 nM): 64%
- MYC downregulation ([11]; 400 nM): 93.9%
- HEXIM1 induction [12]: 31%
- IC50 ([13]; Homo sapiens, LNCaP/AR, treated Day 0 and Day 6, total 14 days (FIG. 8A)): 220 nM
- cell death in LNCaP_AR cells depleted for TP53 and RB1 (CRISPRi) ([13]; summary statement): induced cell death
- growth arrest of LNCaP_AR CRISPRi guide TP53/RB1 cells ([13]; treated Day 0 and Day 6, total 14 days (FIG. 8A)): 100%
- IC50 ([14]; Homo sapiens, LNCaP/AR, treated Day 0 and Day 6, total 14 days (FIG. 8B)): 60 nM
- cell death in LNCaP_AR cells depleted for TP53 and RB1 (shRNA) ([14]; summary statement): induced cell death
- growth arrest of LNCaP_AR shTP53/RB1 cells ([14]; treated Day 0 and Day 6, total 14 days (FIG. 8B)): 100%
- growth arrest of TKO cells ([15]; at 3 uM, treated Day 0 and Day 3, total 6 days (FIG. 9A)): 100%
- cytotoxic activity in TKO cells ([15]; at the highest concentrations (FIG. 9A)): cytotoxic activity
- growth arrest of DKO cells ([16]; at 1 uM, treated Day 0 and Day 6, total 14 days (FIG. 9B)): 100%
- cytotoxic activity in DKO cells ([16]; at the highest concentrations (FIG. 9B)): cytotoxic activity
- reduction of DU145 proliferation [17]: 76%
- IC50 ([17]; Homo sapiens, DU-145, 72 h): 680 nM
- reduction of PC3 proliferation [18]: 80%
- IC50 ([18]; Homo sapiens, PC-3, 72 h): 550 nM
- reduction of cell proliferation in all Neuroendocrine prostate cancer models tested [19]: > 76%
